This is an account of results in patent US20180221343A1, “PHARMACEUTICAL COMPOSITION FOR PREVENTING OR TREATING MACULAR DEGENERATION” (KOREA RESEARCH INSTITUTE OF CHEMICAL TECHNOLOGY, priority 2011, published 2018).

For data set [1], the system named is corneal angiogenesis. The data set is described as follows: Inhibitory effects against corneal angiogenesis, subconjunctival injection and eye drop-administration. Particulars: subconjunctival injection 20 μl plus eye drop 50 μl; KR 0.3 mg/ml, Avastin 10 mg/ml. The data set is classed as in vivo, Sprague Dawley rats. The procedure: The tests were performed by using Sprague Dawley rats (8 weeks old, male) as animals having corneal damage (15 rats for the experiment group; and 1 rat for normal group, respectively). The corneal damage was induced by applying a cotton swab coated with silver nitrate to the surface of the rat corneas, as as to induce a damage having a diameter of 2 mm in the central cornea. On the third day after inducing the corneal damages, we confirmed the establishment of corneal angiogenesis-inducing models and then subconjunctivally injected a solution (20 μl) prepared by dissolving the compound of Preparation Example 23, i.e., (2R,3R,4S)-6-amino-4-[N-(4-chlorophenyl)-N-(1H-imidazol-2-ylmethyl)amino]-3-hydroxy-2-methyl-2-dimethoxymethyl-3,4-dihydro-2H-1-benzopyran (KR-31831) in phosphate buffered saline (PBS) containing 10% PEG 400, in the concentration of 0.3 mg/ml. […] The evaluations quantifying the photographs of FIG. 1 were performed by using the Image J (NIH, USA) program and the results thereof were shown in FIG. 2.
Except for performing both the subconjunctival injection and the eye drop-administration of (2R,3R,4S)-6-amino-4-[N-(4-chlorophenyl)-N-(1H-imidazol-2-ylmethyl)amino]-3-hydroxy-2-methyl-2-dimethoxymethyl-3,4-dihydro-2H-1-benzopyran and Avastin, the inhibitory effects against angiogenesis were evaluated according to the same manners as in Example 1. […]

Data set [2] concerns VEGF receptor 2 (FLK-1). The data set is described as follows: Expression of VEGF receptor 2 (FLK-1) in corneal tissue by RT-PCR. The data set is classed as in vivo, rats. Particulars: subconjunctival injection 20 μl; KR 0.3 mg/ml, Avastin 10 mg/ml. The procedure:
The tests were performed for confirming corneal angiogenesis as a marker. To a Trizole™ solution (200 μl), were added each corneal tissue obtained from the rats of Example 1. Total RNAs were isolated and then cDNAs were prepared by using a reverse transcriptase. Each cDNA (5 μl) was mixed with the primer set of FLK-1 and then PCR amplication was performed in a thermocycler under the following conditions; denaturation at 94° C. for 5 minutes, and then 35 cycles of denaturation at 94° C. for 20 seconds, annealing at 58° C. for 1 minute, and extension at 72° C. for 25 seconds. Each PCR product was loaded on 1% agarose gel; and the resulting ethidium bromide fluorescent bands were identified.

In data set [3] the test system is retinal angiogenesis. The data set is described as follows: Laser-induced retinal damage model in micro pigs, fluorescein intensity. The data set is classed as in vivo, Yutacan Micro pigs. Here is the method:
The tests were performed by using Yutacan Micro pigs (3 kg, male) as animal models having retinal damage (15 pigs for the experiment group). The retinal macular degeneration models were established according to the same procedures as in Brown Norway rats of Example 5. The eye drop formulation (100 μl, 0.9 mg/ml) prepared according to the same procedures as in Example 2 was administered four times per day for 2 weeks. For vitreous injection, the solution of the same compound (20 μl, 0.3 mg/ml) was injected into the vitreous humor once. 2 weeks after the administrations, 1% fluorescein was intravenously injected so as to observe the laser-induced damage site; and the effects of the compound of the present invention, i.e., (2R,3R,4S)-6-amino-4-[N-(4-chlorophenyl)-N-(1H-imidazol-2-ylmethyl)amino]-3-hydroxy-2-methyl-2-dimethoxymethyl-3,4-dihydro-2H-1-benzopyran. The evaluations quantifying the photographs of FIG. 9 were performed by using the Image J (NIH, USA) program and the results thereof were shown in FIG. 10.

Data set [4] can be described thus: Retinal delivery of eye drop formulation (levels in ocular tissues and plasma). The data set is classed as in vivo, Rats. Particulars: eye drop 50 μl of Formulation Example 1. The procedure:
We evaluated whether the eye drop formulation containing (2R,3R,4S)-6-amino-4-[N-(4-chlorophenyl)-N-(1H-imidazol-2-ylmethyl)amino]-3-hydroxy-2-methyl-2-dimethoxymethyl-3,4-dihydro-2H-1-benzopyran is penetrated through the cornea and then delivered to the retina. Rats (8 weeks old) were used in the test; and the eye drop formulation (50 μl) prepared in the following Formulation Example 1 was dropped on each rat's eye.

In data set [5] the test system is rat corneal epithelial wound. Description: Corneal Wound Healing Assay (2). The data set is classed as in vivo, SD rats. To be noted: topical 3 and 6 mg/ml every 6 hour; observed at 0 and 18 hours. Here is the method: SD rats (male, 8 weeks, 250 g) were used. Animal study protocol was in accordance with the Association for Research in Vision and Ophthalmology Statement for the Use of Animals in Ophthalmic and Visual Research. All animals were housed in individual cages and maintained under standard conditions (12 hour light-dark cycle).
Rats were anesthetized by Zoletil® (50 mg/kg, Tiletamina 25 mg, Zolazepam 25 mg; Vibrac, Carros, France) and Rompun® (10 mg/kg, Bayer, France). The cornea was anesthetized by topical 0.5% proparacaine (Alcaine®; Alcon, Fort Worth, Tex., USA). After applying 0.5% proparacaine drops, 5.0 mm Trephine Blade® (Katena, Denville, N.J., USA) was placed and fixed firmly on the corneal surface. One drop of 20% ethanol were put into the tephine well and left in place for 30 seconds, then absorbed with a dry cellulose sponge (Merocel®; Medtronic Solan, Jacksonville, Fla., USA) and irrigated with normal saline. And the epithelium was removed in 6.0 mm diameter.
The drugs were each topically applied in 3 mg/ml (0.3%) and 6 mg/ml (0.6%) concentrations (in 5% DMSO, 10% PEG (Mw 400) and 85% saline (0.9% NaCl)) in every 6 hour, respectively.
The corneal wounds were captured by digital camera under cobalt blue light and the defect area was analyzed by Image J software (Ver 4.1, NIH). The significance between Vehicle and each group was analyzed by paired T-test, and the significance of the test was analyzed by One Way ANOVA analysis.

For the compound `COC(OC)[C@]1(C)Oc2ccc(N)cc2[C@H](N(Cc2ncc[nH]2)c2ccc(Cl)cc2)[C@H]1O` [KR-31831, (2R,3R,4S)-6-amino-4-[N-(4-chlorophenyl)-N-(1H-imidazol-2-ylmethyl)amino]-3-hydroxy-2-methyl-2-dimethoxymethyl-3,4-dihydro-2H-1-benzopyran], the “angiogenesis in comparison with the angiogenesis (100%) of the control group” value in data set [1] is on record as 25.1±10.8%. The “FLK-1 expression in the cornea (control group 100%)” value in data set [2] was “about 30%”. The “intensity at laser-induced damage site (non-drug administered control group = 1)” value in data set [3] (eye drop formulation 100 μl, 0.9 mg/ml, 4 times per day, 2 weeks) was 0.46±0.17. Besides, the “intensity at laser-induced damage site (non-drug administered control group = 1)” value in data set [3] (vitreous injection 20 μl, 0.3 mg/ml, once, 2 weeks after) is 0.36±0.14. In data set [4] (30 minutes), the “level in Aqueous humor” value was 1250 ng/mL, the “level in Retina” value is 846 ng/mL and the “level in Vitreous humor” value is 195 ng/mL. For the same compound, in data set [4] (120 minutes), the “level in Aqueous humor” value stood at 827 ng/mL, the “level in Plasma” value is 0.9 ng/mL, the “level in Retina” value was found to be 225 ng/mL and the “level in Vitreous humor” value worked out at 194 ng/mL. Further, in data set [5], the “inhibitory effect on normal healing of rat corneal epithelial wound” value is “did not show inhibitory effect”.
